Measured values from patent US7541367B2, “3-benzoimidazolyl-pyrazolopyridines useful in treating kinase disorders” (Janssen Pharmaceutica, N.V., priority 2005, dated 2009).
pIC50: −log10 of the molar value.

What was measured:
[1] = tested on: HeLa cervical adenocarcinoma; test: Cell Proliferation Inhibition Assay (14C-thymidine incorporation), HeLa; assay type: cell-based; settings: Homo sapiens, HeLa, HeLa cells;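 note: test compound in DMSO added to cells seeded in scintillating 96-well plates, DMSO-only wells as control, uptake of methyl 14C-thymidine into new DNA counted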
Aurora-A = target: T1, Aurora-A (Mus musculus, UniProt P97477); test: Aurora-A kinase screening assay (33P-ATP FlashPlate); assay type: biochemical; settings: 10 μM ATP, 1 hr at 30° C;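 note: His-tagged mouse Aurora-A phosphorylating a biotinylated peptide captured on streptavidin plates, read as 33P uptake by scintillation counting, 1% DMSO, inhibition scaled between per-plate maximum and minimum signals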
T1 construct: polyhistidine (N)
T1 sequence (P97477 1-395): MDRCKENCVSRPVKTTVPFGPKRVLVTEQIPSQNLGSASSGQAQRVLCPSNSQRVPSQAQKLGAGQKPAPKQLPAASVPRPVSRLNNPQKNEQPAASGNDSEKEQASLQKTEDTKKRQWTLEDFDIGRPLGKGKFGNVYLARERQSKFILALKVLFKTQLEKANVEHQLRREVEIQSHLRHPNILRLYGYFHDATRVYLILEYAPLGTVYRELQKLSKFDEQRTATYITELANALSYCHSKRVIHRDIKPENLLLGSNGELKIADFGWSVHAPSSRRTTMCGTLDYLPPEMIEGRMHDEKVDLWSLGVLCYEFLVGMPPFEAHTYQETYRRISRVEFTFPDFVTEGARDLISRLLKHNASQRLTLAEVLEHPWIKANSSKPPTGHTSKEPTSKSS

A375 malignant melanoma = test: Cell Proliferation Inhibition Assay (14C-thymidine incorporation), A375; assay type: cell-based; settings: Homo sapiens, A-375, A375 cells;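 note: proliferation measured by radiolabelled thymidine uptake into new DNA, counted in scintillating 96-well plates, compound-treated wells compared with DMSO-only control wells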
HER2 = target: T2, HER2 (Homo sapiens, UniProt P04626); test: HER2 kinase screening assay (33P-ATP FlashPlate); assay type: biochemical; settings: GST-HIS6 HER-2 aa 679 to 1255; 10 μM ATP; 1 hr at 30° C;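 note: Biotin-poly(GT) 4:1 peptide captured on streptavidin FlashPlate, 33P transfer from γ-ATP read by scintillation counting, lower incorporation means inhibition, 1% DMSO final, 100 µL reaction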
T2 construct: GST (Glutathione-S-Transferase) (N); HIS6 (N); thrombin cleavage site (N); purchased Proqinase, Freiburg, Germany
T2 sequence (P04626 679-1255): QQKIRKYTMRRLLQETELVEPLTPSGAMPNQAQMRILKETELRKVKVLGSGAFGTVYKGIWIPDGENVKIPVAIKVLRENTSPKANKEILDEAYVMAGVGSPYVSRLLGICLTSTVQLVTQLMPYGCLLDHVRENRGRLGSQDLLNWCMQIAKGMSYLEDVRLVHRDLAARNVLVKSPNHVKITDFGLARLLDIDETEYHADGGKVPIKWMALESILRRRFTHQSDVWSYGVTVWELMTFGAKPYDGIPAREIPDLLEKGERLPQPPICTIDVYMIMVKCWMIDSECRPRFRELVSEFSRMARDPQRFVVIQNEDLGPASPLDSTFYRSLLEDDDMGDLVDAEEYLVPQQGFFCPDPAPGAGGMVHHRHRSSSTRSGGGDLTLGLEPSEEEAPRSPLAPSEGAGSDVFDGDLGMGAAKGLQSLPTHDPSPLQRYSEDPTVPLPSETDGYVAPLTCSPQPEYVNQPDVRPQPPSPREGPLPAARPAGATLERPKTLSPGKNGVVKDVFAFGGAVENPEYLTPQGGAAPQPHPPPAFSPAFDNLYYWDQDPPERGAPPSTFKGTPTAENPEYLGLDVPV

VEGF-R2 = target: T3, VEGF-R2 (Rattus norvegicus, UniProt O08775); test: VEGF-R2 kinase screening assay (33P-ATP FlashPlate); assay type: biochemical; settings: rat VEGF-R2 kinase domain; 10 μM ATP; 1 hr at 30° C;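 note: Read-out is ³³P incorporation from ³³P-γ-ATP into biotinylated peptide substrate captured on streptavidin FlashPlate, counted by scintillation, 1% DMSO final, inhibition scaled between per-plate maximum and minimum signals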
T3 construct: polyhistidine (N)
T3 sequence (O08775 786-1343): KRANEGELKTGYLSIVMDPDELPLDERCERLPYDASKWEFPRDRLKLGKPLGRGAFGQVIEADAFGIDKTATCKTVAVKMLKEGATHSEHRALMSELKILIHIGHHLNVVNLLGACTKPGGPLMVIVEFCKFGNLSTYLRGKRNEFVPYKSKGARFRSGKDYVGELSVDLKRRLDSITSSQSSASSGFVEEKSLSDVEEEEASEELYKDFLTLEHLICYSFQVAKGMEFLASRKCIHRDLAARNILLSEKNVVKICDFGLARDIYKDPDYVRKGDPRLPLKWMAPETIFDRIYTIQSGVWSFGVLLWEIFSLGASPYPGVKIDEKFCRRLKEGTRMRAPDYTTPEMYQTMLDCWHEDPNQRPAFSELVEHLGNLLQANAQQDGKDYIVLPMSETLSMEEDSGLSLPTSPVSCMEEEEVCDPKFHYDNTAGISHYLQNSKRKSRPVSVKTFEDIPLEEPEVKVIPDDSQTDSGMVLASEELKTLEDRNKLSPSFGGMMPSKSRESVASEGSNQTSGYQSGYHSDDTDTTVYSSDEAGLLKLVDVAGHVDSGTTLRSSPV

HCT-116 colon carcinoma = test: Cell Proliferation Inhibition Assay (14C-thymidine incorporation), HCT-116; assay type: cell-based; settings: Homo sapiens, HCT-116, HCT-116 cells;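 note: proliferation measured as methyl 14C-thymidine uptake into new DNA, counted in 96-well scintillating microplates, compared with DMSO-only control wells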
CDK1 = target: T4, CDK1 (Homo sapiens, UniProt P06493); test: CDK-1 kinase screening assay (33P-ATP FlashPlate); assay type: biochemical; settings: human CDK1 with cyclin B; 10 μM ATP; 1 hr at 30° C
T4 construct: purchased New England Biolabs, Beverly, Mass; 6020; host or cells: insect cells
T4 sequence (P06493 whole entry): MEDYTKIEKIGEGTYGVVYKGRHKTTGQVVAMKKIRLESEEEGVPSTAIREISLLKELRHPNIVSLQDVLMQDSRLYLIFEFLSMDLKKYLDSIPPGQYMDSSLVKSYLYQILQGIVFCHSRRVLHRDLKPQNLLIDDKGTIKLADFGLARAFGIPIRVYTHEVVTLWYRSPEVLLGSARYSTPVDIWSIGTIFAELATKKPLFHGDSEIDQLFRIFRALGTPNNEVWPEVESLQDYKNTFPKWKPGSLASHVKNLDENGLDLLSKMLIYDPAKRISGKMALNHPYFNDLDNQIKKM
T4 sequence (P14635 whole entry partner): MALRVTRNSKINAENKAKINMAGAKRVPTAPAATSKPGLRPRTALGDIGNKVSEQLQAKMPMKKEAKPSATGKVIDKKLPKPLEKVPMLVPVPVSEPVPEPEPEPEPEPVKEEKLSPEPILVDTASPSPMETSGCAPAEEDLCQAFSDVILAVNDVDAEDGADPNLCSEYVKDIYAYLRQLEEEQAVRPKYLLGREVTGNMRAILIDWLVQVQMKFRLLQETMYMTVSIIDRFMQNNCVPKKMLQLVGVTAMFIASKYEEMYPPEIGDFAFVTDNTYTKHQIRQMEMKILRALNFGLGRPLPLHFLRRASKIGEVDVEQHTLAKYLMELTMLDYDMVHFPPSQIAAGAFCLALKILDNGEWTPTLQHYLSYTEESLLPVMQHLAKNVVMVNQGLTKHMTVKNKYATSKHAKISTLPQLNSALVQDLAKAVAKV

RET = target: T5, RET (Homo sapiens, UniProt P07949); test: RET kinase screening assay (33P-ATP FlashPlate); assay type: biochemical; settings: human RET kinase domain; 10 μM ATP; 1 hr at 30° C;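 note: biotinylated peptide substrate captured on streptavidin FlashPlate, 33P phosphate transfer read by scintillation counting, 1% DMSO, lower incorporation means inhibition, percent relative to per-plate maximum and minimum signals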
T5 construct: polyhistidine (N)
T5 sequence (P07949 658-1114 limits assumed): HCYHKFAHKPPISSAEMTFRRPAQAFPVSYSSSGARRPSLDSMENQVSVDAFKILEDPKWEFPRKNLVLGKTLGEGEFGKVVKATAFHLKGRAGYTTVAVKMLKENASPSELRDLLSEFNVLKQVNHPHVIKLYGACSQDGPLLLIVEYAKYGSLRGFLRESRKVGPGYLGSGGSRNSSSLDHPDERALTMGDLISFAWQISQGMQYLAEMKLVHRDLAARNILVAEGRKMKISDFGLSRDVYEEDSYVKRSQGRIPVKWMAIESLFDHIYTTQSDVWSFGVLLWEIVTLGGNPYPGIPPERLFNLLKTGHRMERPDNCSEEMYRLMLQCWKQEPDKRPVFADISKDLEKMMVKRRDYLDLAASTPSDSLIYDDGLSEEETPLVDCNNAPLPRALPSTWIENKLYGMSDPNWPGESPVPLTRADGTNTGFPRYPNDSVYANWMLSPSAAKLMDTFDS

Row | Compound | pIC50 [1] | pIC50 (Aurora-A) | pIC50 (A375 malignant melanoma) | pIC50 (HER2) | pIC50 (VEGF-R2) | pIC50 (HCT-116 colon carcinoma) | pIC50 (CDK1) | pIC50 (RET)
1 | COCc1cccc2[nH]c(-c3n[nH]c4ncc(-c5c[nH]c6ccccc56)cc34)nc12 [Cpd 39, 5-(1H-indol-3-yl)-3-(4-methoxymethyl-1H-benzoimidazol-2-yl)-1H-pyrazolo[3,4-b]pyridine] | 5.77 | < 6.00 | 7.45 | < 4.00 | 6.57 | 7.59 | 5.92 | < 4.00
2 | COCc1cccc2[nH]c(-c3n[nH]c4ncc(-c5cncc(CN6CCOCC6)c5C)cc34)nc12 [Cpd 60, 3-(4-methoxymethyl-1H-benzoimidazol-2-yl)-5-(4-methyl-5-morpholin-4-ylmethyl-pyridin-3-yl)-1H-pyrazolo[3,4-b]pyridine] | 5.80 | ~6.00 | 7.95 | ~4.00 | 5.52 | 7.40 | 6.33 | < 5.00
3 | COCc1cccc2[nH]c(-c3n[nH]c4ncc(-c5cncc(CN(C)C)c5C)cc34)nc12 [Cpd 61, {5-[3-(4-methoxymethyl-1H-benzoimidazol-2-yl)-1H-pyrazolo[3,4-b]pyridin-5-yl]-4-methyl-pyridin-3-ylmethyl}-dimethyl-amine] | 5.74 | 6.49 | 6.66 | < 5.00 | 5.39 | 7.00 | 6.55 | < 5.00
4 | CNCc1cncc(-c2cnc3[nH]nc(-c4nc5c(COC)cccc5[nH]4)c3c2)c1C [Cpd 62, {5-[3-(4-methoxymethyl-1H-benzoimidazol-2-yl)-1H-pyrazolo[3,4-b]pyridin-5-yl]-4-methyl-pyridin-3-ylmethyl}-methyl-amine] | 5.93 | 5.76 | 7.21 | < 4.00 | 5.55 | 6.64 | 7.17 | ~5.00
5 | COCc1cccc2[nH]c(-c3n[nH]c4ncc(-c5ccc(OC)nc5)cc34)nc12 [Cpd 63, 3-(4-methoxymethyl-1H-benzoimidazol-2-yl)-5-(6-methoxy-pyridin-3-yl)-1H-pyrazolo[3,4-b]pyridine] | 5.00 | ~4.00 | 7.12 | < 4.00 | 6.50 | 6.92 | < 5.00 | < 4.00
6 | COCc1cccc2[nH]c(-c3n[nH]c4ncc(-c5ccc(N6CCN(C(=O)OC(C)(C)C)CC6)nc5)cc34)nc12 [Cpd 67, 4-{5-[3-(4-methoxymethyl-1H-benzoimidazol-2-yl)-1H-pyrazolo[3,4-b]pyridin-5-yl]-pyridin-2-yl}-piperazine-1-carboxylic acid tert-butyl ester] | 5.70 | < 4.00 | 7.96 | < 4.00 | < 5.00 | 7.61 | < 5.00 | < 4.00
7 | COCc1cccc2[nH]c(-c3n[nH]c4ncc(-c5cncnc5)cc34)nc12 [Cpd 68, 3-(4-methoxymethyl-1H-benzoimidazol-2-yl)-5-pyrimidin-5-yl-1H-pyrazolo[3,4-b]pyridine] | 5.00 | ~5.00 | 6.79 | < 4.00 | 6.94 | 6.49 | 5.89 | < 4.00
8 | CCOC(=O)c1cncc(-c2cnc3[nH]nc(-c4nc5c(COC)cccc5[nH]4)c3c2)c1 [Cpd 70, 5-[3-(4-methoxymethyl-1H-benzoimidazol-2-yl)-1H-pyrazolo[3,4-b]pyridin-5-yl]-nicotinic acid ethyl ester] | 5.71 | ~4.00 | 7.41 | < 4.00 | ~4.00 | 7.26 | < 4.00 | < 4.00
9 | FC1(F)Oc2cc3nc(-c4n[nH]c5ncc(-c6cccnc6)cc45)[nH]c3cc2O1 [Cpd 98, 2,2-difluoro-6-(5-pyridin-3-yl-1H-pyrazolo[3,4-b]pyridin-3-yl)-5H-[1,3]dioxolo[4′,5′:4,5]benzo[1,2-d]imidazole] | 5.79 | < 5.00 | 5.97 | < 4.00 | < 7.00 | 6.03 | 8.18 | < 4.00

These reach a higher pIC50 [1]. Values come first.

Row | pIC50 [1] | pIC50 (Aurora-A) | pIC50 (A375 malignant melanoma) | pIC50 (HER2) | pIC50 (VEGF-R2) | pIC50 (HCT-116 colon carcinoma) | pIC50 (CDK1) | pIC50 (RET) | Compound
10 | 6.15 | 5.82 | 6.48 | < 5.00 | 7.43 | 6.41 | 6.98 | < 6.00 | COCc1cccc2[nH]c(-c3n[nH]c4ncc(-c5cncc(CNC(C)(C)C)c5)cc34)nc12 [Cpd 53, tert-butyl-{5-[3-(4-methoxymethyl-1H-benzoimidazol-2-yl)-1H-pyrazolo[3,4-b]pyridin-5-yl]-pyridin-3-ylmethyl}-amine]
11 | 6.16 | < 6.00 | 6.92 | < 4.00 | < 6.00 | 7.16 | 7.18 | < 5.00 | COCc1cccc2[nH]c(-c3n[nH]c4ncc(-c5cnccc5C)cc34)nc12 [Cpd 57, 3-(4-methoxymethyl-1H-benzoimidazol-2-yl)-5-(4-methyl-pyridin-3-yl)-1H-pyrazolo[3,4-b]pyridine]
12 | 5.97 | < 6.00 | 8.36 | < 4.00 | 6.92 | 7.69 | < 4.00 | < 4.00 | COCc1cccc2[nH]c(-c3n[nH]c4ncc(-c5ccc(N6CCOCC6)nc5)cc34)nc12 [Cpd 66, 3-(4-methoxymethyl-1H-benzoimidazol-2-yl)-5-(6-morpholin-4-yl-pyridin-3-yl)-1H-pyrazolo[3,4-b]pyridine]
13 | 6.38 | 5.61 | 6.46 | < 5.00 | ~6.00 | 6.66 | 8.17 | < 5.00 | CCCCNCc1cncc(-c2cnc3[nH]nc(-c4nc5c(COC)cccc5[nH]4)c3c2)c1 [Cpd 79, butyl-{5-[3-(4-methoxymethyl-1H-benzoimidazol-2-yl)-1H-pyrazolo[3,4-b]pyridin-5-yl]-pyridin-3-ylmethyl}-amine]
14 | 6.07 | 6.55 | 6.05 | 5.72 | 6.92 | 6.37 | 8.21 | 6.98 | CN(C)Cc1cncc(-c2cnc3[nH]nc(-c4nc5cc(N6CCN(C)CC6)ccc5[nH]4)c3c2)c1 [Cpd 88, dimethyl-(5-{3-[5-(4-methyl-piperazin-1-yl)-1H-benzoimidazol-2-yl]-1H-pyrazolo[3,4-b]pyridin-5-yl}-pyridin-3-ylmethyl)-amine]
15 | 6.33 | ~5.00 | 6.31 | < 4.00 | ~6.00 | 6.57 | 8.48 | < 4.00 | c1cncc(-c2cnc3[nH]nc(-c4nc5cc6c(cc5[nH]4)OCO6)c3c2)c1 [Cpd 99, 6-(5-pyridin-3-yl-1H-pyrazolo[3,4-b]pyridin-3-yl)-5H-[1,3]dioxolo[4′,5′:4,5]benzo[1,2-d]imidazole]
16 | 6.92 | < 6.00 | 6.28 | < 5.00 | < 8.00 | 6.16 | 8.77 | < 8.00 | CNCc1cncc(-c2cnc3[nH]nc(-c4nc5ccc(C#N)cc5[nH]4)c3c2)c1 [Cpd 105, 2-[5-(5-methylaminomethyl-pyridin-3-yl)-1H-pyrazolo[3,4-b]pyridin-3-yl]-3H-benzoimidazole-5-carbonitrile]
